# Laboratory results from patent US20240148767A1, “THE USE OF EMPAGLIFLOZIN FOR THE TREATMENT OF ULCERATIVE COLITIS AND CROHN'S DISEASE” (The Governors of the University of Alberta, priority 2021, published 2024).
# Entries after “also recorded” stand apart in the source; their conditions may differ.
# What was measured:
# [1] = test system: IL-10−/− mice with established colitis; assay: EMPA treatment of adult IL-10−/− mice with established colitis; assay type: in vivo, mouse
# From the text: Methods: In our colony, IL-10−/− mice begin to develop colitis between 8-12 weeks of age. […] Further, this dose was also chosen to match the active dose in humans by considering the differences in the metabolism and other pharmacokinetic parameters between mice and humans^55. The dose used in this study results in free plasma concentration of ˜20 nmol/L in mice^56 which is within the normal and safe range of that reported in humans^57-59. […] Adult IL-10^−/− mice with established colitis were treated with a daily gavage of EMPA (10 mg/kg; n=10) or vehicle (n=10) for 14 days. Disease activity was assessed by measurement of mouse weight, colonic weight and length, histological score, cytokine levels in colonic homogenate and lipocalin-2 levels in stool. To examine for possible direct effects of EMPA, colonic explants from wild-type and IL-10^−/− mice were incubated with increasing doses of EMPA (0.1-5 μM)±LPS for 2 hours and tissue levels of IL-1β and TNFα measured.
# FIG. 4. Representative histological samples of colons. Colons were flushed with phosphate-buffered saline containing 0.1% gentamycin and immediately fixed in 10% v/v neutral buffered formalin. The fixed samples were paraffin-embedded, sectioned, and stained with hematoxylin and eosin. Disease scoring methods used were based on four scores: 1) epithelial hyperplasia (0-3), 2) enterocyte injury (0-3), 3) lymphocytes (0-2) and neutrophil infiltration (0-2) in the lamina propria. The total maximum histological score (10) is based on the sum of the individual scores. (A) control. (B) Empa.
# [2] = mice, 10 mg/kg dose; cited from earlier work
# [3] = cited from earlier work
# [4] = test system: murine macrophages; conditions: murine macrophages in vitro, cited from earlier work
# [5] = healthy humans, dose matched to the human active dose; cited from earlier work
# [6] = test system: human THP-1 macrophages; conditions: pretreatment for 24 hours; cited from earlier work
# [7] = test system: SGLT2 over SGLT1; conditions: cited from earlier work
# [8] = EMPA 10 mg/kg daily gavage, 14 days, p=0.04
smiles,measurement,setting,value
"OC[C@H]1O[C@@H](c2ccc(Cl)c(Cc3ccc(O[C@H]4CCOC4)cc3)c2)[C@H](O)[C@@H](O)[C@@H]1O [EMPA, Empagliflozin]",lymphocytic infiltration into the lamina propria,"[1]; EMPA 10 mg/kg daily gavage, 14 days",reduced
same,enterocyte injury (histological score),"[1]; EMPA 10 mg/kg daily gavage, 14 days, vs vehicle, p<0.01",no enterocyte injury; also recorded: significant decrease
same,total histological score,"[1]; EMPA 10 mg/kg daily gavage, 14 days, vs vehicle, p=0.006",decreased
same,lamina propria neutrophils (histological score),"[1]; EMPA 10 mg/kg daily gavage, 14 days, vs vehicle, p=0.01",decreased
same,colonic weight to length ratio,"[1]; EMPA 10 mg/kg daily gavage, 14 days, vs vehicle, p=0.019",decreased
same,fecal lipocalin-2,"[1]; EMPA 10 mg/kg daily gavage, 14 days, vs vehicle, p=0.03",decrease
same,colonic TNFα (real-time qPCR),"[1]; EMPA 10 mg/kg daily gavage, 14 days, p=0.02",significant decreases
same,colonic IFNγ (real-time qPCR),[1]; [8],significant decreases
same,colonic IL-1β (real-time qPCR),[1]; [8],significant decreases
same,body weight over the 14 days,"[1]; EMPA 10 mg/kg daily gavage, vehicle treated mice continued to lose weight, p=0.04",maintained their weight
same,blood glucose levels in pilot experiments,"[1]; EMPA 10 mg/kg dose, pilot experiments",no effect
same,blood glucose levels,"[1]; EMPA-treated mice vs controls, 14 days",no significant differences
same,free plasma concentration,[2],~20 nM
same,time to peak levels,[3]; after a single dose,1.5 h
same,bioavailability,[3]; humans,78%
same,half-life,[3]; in humans,~12 h
same,recovered in the feces as unchanged drug,[3]; in vivo,Approximately 40%
same,expression of anti-inflammatory M2 markers,[4]; AMPK-mediated mechanism,increased
same,LPS-induced ATP depletion,[4],prevented
same,LPS-induced TNFα and iNOS expression,[4],attenuated
same,hypoglycemia,[5],does not cause hypoglycemia
same,TNFα-stimulated chemokine release,[6],decreased
same,selectivity for SGLT2 over SGLT1,[7],~2700 fold
